Key:
[1] = Relative cooling strength of individual coolants, organoleptic sequential dilution method versus standard 10 ppm WS-3 solution in water; assay type: in vivo; conditions: relative to 10 ppm WS-3 in water assigned 10.0; values accepted in the art and confirmed by expert evaluation
From the text: The aqueous solutions of products for organoleptic tests were obtained by dissolving appropriate amounts of the products in propylene glycol PG and adding the PG solution to an appropriate amount of water.
A. Cooling strength values for individual coolants. Cooling strength values used in this invention for individual coolants were those generally accepted in the art and also additionally confirmed using expert evaluations conducted by Millennium Specialty Chemicals personnel on the basis of a sequential dilution method, i.e., a controlled dilution of samples to the concentration where their strength is about equal to the standard solution of WS-3. For purposes of Examples 55-60, a 10 ppm solution of WS-3 in water was used as the standard solution and was assigned a standardized cooling strength value of 10.0. The corresponding relative cooling strengths for the individual cooling agents were then assigned based upon an organoleptic determination of the approximate concentration of cooling agent that was required to provide about the same cooling strength as the standardized 10 ppm solution of WS-3.

melting point	Molecule	Relative cooling strength [1]
–	CCNC(=O)[C@@H]1C[C@H](C)CC[C@H]1C(C)C [WS-3, N-ethyl-3-p-menthane carboxamide]	10.0
147 to 150 °C	CC(C)[C@@H]1CC[C@@H](C)C[C@H]1C(=O)NC(C)(C)C [WS-14, N-tert-butyl-3-p-menthane carboxamide]	about 5.0
–	CCOC(=O)CNC(=O)C1CC(C)CCC1C(C)C (stereo not shown) [WS-5, N-(ethoxycarbonylmethyl)-3-p-menthane carboxamide]	about 16.7
–	CNC(=O)C(C)(C(C)C)C(C)C [WS-23, N,2,3-trimethyl-2-isopropyl butanamide]	about 5.0
–	CC1CCC(C(C)C)C(OC(=O)C(C)O)C1 (stereo not drawn) [Menthyl Lactate, l-Menthyl ester of lactic acid]	about 2.9
–	Glyceryl ether of p-menthane-3-carboxylic acid [WS-30]	about 1.5
–	CC(C)[C@@H]1CC[C@@H](C)C[C@H]1OC(=O)CCCC(=O)O [MMG, monomenthyl glutarate]	about 3.5
146 to 148 °C	CNC(=O)C1C(C)CCCC1(C)C (stereo not shown) [N,2,2,6-Tetramethylcyclohexane-1-carboxamide]	about 1.0

Reference: US7482378B2, “Physiological cooling compositions” (Millenium Specialty Chemicals, Inc., priority 2004, dated 2009)
